# Measurements: patent US8563522B2, “Method of maintaining and/or attenuating a decline in quality of life” (The IAMS Company, priority 1997, dated 2013)
# Columns and labels:
# [1] = system: hexokinase; settings: cited from earlier work
# [2] = system: isolated rat hepatocytes; settings: cited from earlier work
# [3] = system: glucose metabolism; settings: rodents, long-term, lower dose; cited from earlier work
# [4] = system: utilization of glucose as an energy source; settings: cited from earlier work
# [5] = injected into a rat; cited from earlier work
# [6] = Mice fed a composition containing mannoheptulose; format: in vivo
# [7] = injected, rats, cited from earlier work
# [8] = Pharmacokinetics, once daily mannoheptulose in composition fed to adult Labrador Retrievers; format: in vivo, Labrador Retriever dogs
# Protocol: The pharmacokinetics of mannoheptulose can be determined in six adult, male Labrador Retriever dogs fed a nutritionally-balanced composition providing mannoheptulose at levels of 0, 1 or 2 mg/kg of body weight of the dog. Mannoheptulose is provided as an enriched source of avocado extract in the 1 and 2 mg/kg diets. The mean age of the dogs is 4.2 years and the age ranges from 3.3 to 6.1 years. The average body weight of all dogs is 33 kg and the body weight ranges from 28 to 36 kg. Dogs are adapted for 14 days to a nutritionally-balanced control composition (Eukanuba Senior Maintenance Formula) containing no mannoheptulose, avocado extract or avocado meal (0 mg/kg mannoheptulose). The two compositions containing mannoheptulose are the nutritionally-balanced control composition formulated with avocado extract to provide a mannoheptulose dose of 1 or 2 mg/kg of body weight when fed to a dog. […] Pharmacokinetics of mannoheptulose following once daily administration of mannoheptulose in a nutritionally-balanced composition is determined by collecting serial blood samples (3 mL) from each dog on day 9 using a Vacutainer blood collection system and jugular venipuncture. […] Plasma mannoheptulose concentrations are measured using high-performance liquid chromatography tandem mass spectrometry as described herein below.
# A one-compartment model is used to calculate mannoheptulose pharmacokinetics based on plasma mannoheptulose levels following once daily oral administration of mannoheptulose in a nutritionally-balanced composition (PV(t)). […] Area under each plasma mannoheptulose curve is determined using a one-way, repeated measures analysis of variance (GraphPad Prism version 4.00 for Windows).
# High performance liquid chromatography tandem mass spectrometry (HPLC/MS/MS) is utilized to determine the amount of mannoheptulose present in the plasma of adult dogs. […] Detection and quantitation is by mass spectrometry (MS) operating under multiple reaction monitoring MS/MS conditions. Concentrations of D-mannoheptulose in dog plasma can be quantitated from approximately 20 to 5000 ng/mL. […]
# [9] = Pharmacokinetics, twice daily mannoheptulose in composition fed to older Labrador Retrievers; format: in vivo, Labrador Retriever dogs
# Protocol: The pharmacokinetics of mannoheptulose can be determined in ten adult, female Labrador Retriever dogs fed a nutritionally-balanced composition providing mannoheptulose at levels of 0 or 2 mg/kg of body weight of the dog. Mannoheptulose is provided as avocado extract in the 2 mg/kg diet. The mean age of the dogs is 7.1 years and the age ranges from 5.3 to 8.4 years. Dogs are age-matched across the two composition groups. The average body weight of all dogs is 29 kg and ranges from 25 to 35 kg. The 0 mg/kg composition is fed as a nutritionally-balanced control composition (Eukanuba Senior Maintenance Formula) and it contains no mannoheptulose, avocado extract or avocado meal. The 2 mg/kg composition is the nutritionally-balanced control composition formulated to contain avocado extract to provide mannoheptulose at a dose of 2 mg/kg of body weight of the dog. The amount of composition offered to the dogs is based on feeding guidelines for the control composition and the target weight range and body condition of the dogs. Dogs are fed one-half their daily allotment of composition at 0730 and the remaining half at 1330. Dogs 1, 2, 3, 4 and 5 are fed the composition containing 2 mg/kg mannoheptulose and dogs 6, 7, 8, 9 and 10 are fed the composition containing 0 mg/kg mannoheptulose. Pharmacokinetics of mannoheptulose following twice daily administration of mannoheptulose in a nutritionally-balanced composition is determined by collecting serial blood samples (3 mL) from each dog using a Vacutainer blood collection system and jugular venipuncture. […] Plasma mannoheptulose concentrations are measured using high-performance liquid chromatography tandem mass spectrometry as described herein below.
# A one-compartment model is used to calculate mannoheptulose pharmacokinetics based on plasma mannoheptulose levels following twice daily oral administration of mannoheptulose in a nutritionally-balanced composition (PV(t)). The model is: PV(t)=dose/(a·BW)e^−kt where: a=mannoheptulose pool size (dose/(enrichment at t0)), BW=body weight, k=rate constant of elimination (ln Et−ln E0)/−t, and t=time.
# High performance liquid chromatography tandem mass spectrometry (HPLC/MS/MS) is utilized to determine the amount of mannoheptulose present in the plasma of adult dogs. […] Detection and quantitation is by mass spectrometry (MS) operating under multiple reaction monitoring MS/MS conditions. Concentrations of D-mannoheptulose in dog plasma can be quantitated from approximately 20 to 5000 ng/mL. […] Specimen concentrations are determined by back-calculation using a weighted (1/x^2) linear regression of a calibration curve generated from prepared D-mannoheptulose calibration standards. […]
# [10] = doses of 10 grams, humans, orally; cited from earlier work
compound,measurement,setting,value
"O=P(O)(O)OC[C@H]1OC[C@H](O)[C@@H](O)[C@@H]1O [1,5-anhydro-D-glucitol-6-phosphate]",inhibition of hexokinase,[1],allosteric (non-competitive) inhibitor
"OC[C@H]1O[C@H](CO)[C@@H](O)[C@@H]1O [2,5-Anhydro-D-mannitol, 2,5-anhydro-D-mannitol]",effect on glucose formation and utilization,[2],interfere in glucose formation and utilization
O=CC[C@@H](O)[C@H](O)[C@H](O)CO [2-deoxy-D-glucose],metabolic hallmarks of caloric restriction,[3],"reduced body temperature, weight loss, and lower fasting insulin levels"
CO[C@@H]([C@H](O)[C@H](O)CO)[C@@H](O)C=O [3-O-methylglucose],responses relative to 2-deoxyglucose,[4]; administration in rats,about seven times weaker
same,metabolism,[4]; in contrast with 2-deoxy-D-glucose,not metabolized
"O=C[C@H](O)[C@@H](O)[C@H](O)[C@H](S)CO [5-Thioglucose, 5-thio-D-glucose]",injected 5-thioglucose excreted unchanged in urine,[5],97%
O=C(CO)[C@@H](O)[C@@H](O)[C@H](O)[C@H](O)CO [mannoheptulose],body weight,[6],slightly reduced body weight
same,plasma insulin levels,[6],reduced plasma insulin levels
same,remained in the body,[7]; a day after the injection,5%
same,excreted unchanged,[7],66%
same,metabolized,[7],29%
same,plasma level response to dietary mannoheptulose level,"[8]; 0, 1, 2 mg/kg",dose-dependent
same,time of return of plasma mannoheptulose to non-detectable levels,[8]; after consumption of the single daily meal,≤ 24 h
same,plasma kinetics order,"[8]; once daily oral, 1 or 2 mg/kg",first order kinetics
same,time to second peak in plasma mannoheptulose,"[9]; after feeding the afternoon meal, 2 mg/kg in two equal meals",4 h
same,time to peak plasma mannoheptulose level,"[9]; after initial (morning) feeding, 2 mg/kg in two equal meals",4 h
same,plasma kinetics order,"[9]; twice daily oral, 2 mg/kg",first order kinetics
same,half-life,"[9]; twice daily, 2 mg/kg, after the afternoon meal",5.63 h
same,safety of oral dosing,[10],safely administered
